Format in all cases: biochemical
Test [1] deals with T1, human Axl (Homo sapiens, UniProt P30530).
T1 construct: GST (N); made in house; host or cells: Sf9 insect cells (baculovirus)
T1 sequence (P30530 473-894 limits assumed): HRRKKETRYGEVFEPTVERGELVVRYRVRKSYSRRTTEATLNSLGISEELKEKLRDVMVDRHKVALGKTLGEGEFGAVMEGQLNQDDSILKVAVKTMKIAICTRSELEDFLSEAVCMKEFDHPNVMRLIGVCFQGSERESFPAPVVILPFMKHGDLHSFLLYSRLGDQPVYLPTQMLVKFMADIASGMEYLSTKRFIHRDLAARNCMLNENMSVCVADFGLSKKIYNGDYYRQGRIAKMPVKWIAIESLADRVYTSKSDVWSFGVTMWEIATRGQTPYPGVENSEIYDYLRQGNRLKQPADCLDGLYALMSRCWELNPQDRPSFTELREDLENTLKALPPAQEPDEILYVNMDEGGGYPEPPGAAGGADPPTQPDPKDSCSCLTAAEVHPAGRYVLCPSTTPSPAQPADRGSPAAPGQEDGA
Kind of test: Kinase enzymatic activity assay (33P-radiolabeled phosphate transfer), Axl. The following applies: recombinant human Axl (473-end), poly(4:1 glu:tyr) substrate, 30 minutes. The source says: (§1) The identification of compounds of the invention as Tyro3, Axl or Mer inhibitors was readily accomplished using the recombinant human Tyro3, Axl and Mer proteins and employing the ^33P-radiolabeled phosphate transfer assay for which the procedure is known to someone skilled in the art or as described in Example 9.
(§2) Recombinant human Tyro3 (455-end, the gene accession number NM_006293), human Axl (473-end, the gene accession number NM_021913) and human Mer (578-872, the gene accession number NM_006343) were independently expressed by baculovirus in Sf9 insect cells using an N-terminal GST tag. The recombinant proteins were stored at −70° C. in a medium containing 50 mM Tris-HCl, pH 7.5, 150 mM NaCl, 10 mM glutathione, 0.1 mM EDTA, 0.25 mM DTT, 0.1 mM PMSF and 25% glycerol. The recombinant proteins were aliquoted into smaller quantities after centrifugation to avoid repeated handling and multiple freeze/thaw cycles for the most favorable performance.
(§3) Kinase Assay Buffer: This buffer solution consisted of the following components: 25 mM MOPS, pH 7.2, 12.5 mM β-glycerol-phosphate, 25 mM MgCl2, 5 mM EGTA, 2 mM EDTA and DTT 0.25 mM which was added prior to use.
(§4) Kinase Dilution Buffer: Kinase Assay Buffer was diluted at a 1:4 ratio (5× dilution) with distilled water.
(§5) [^33P]-ATP assay cocktail: In a designated radioactive working area, a 250 μM [^33P]-ATP assay cocktail was prepared by the addition of the following components: 150 μL of 10 mM ATP stock solution, 100 μL [^33P]-ATP (1 mci/100 μL), and 5.75 mL of kinase assay buffer. This solution was stored in 1 mL aliquots at −20° C.
(§6) ATP stock solution (10 mM): The ATP stock solution was prepared by dissolving 55 mg of ATP in 10 mL of kinase assay buffer. It was stored in 200 μL aliquots at −20° C.
(§7) Active Kinase Stock Solution: The active recombinant kinase protein (0.1 μg/μL) was diluted with Kinase Dilution Buffer and the activity was assayed using a serial dilution method. The specific activity is expressed in nmoL/min/mg.
(§8) Substrates: poly(4:1 glu:tyr) is the substrate used for each kinase Tyro3, Axl and Mer: The peptide substrate was dissolved in water to give the final concentration of 1 mg/mL.
(§9) Test compound solution: Test compound was dissolved in DMSO to obtain a 10 mM solution. The assay solution was prepared by adding 5 μL of this solution to […] of 10% DMSO/water to obtain the final concentration of 50 μM.
(§10) The enzymatic activity of all three kinases was determined as follows. Using a 96-well plate, the wells were divided into three categories: Blank wells, […] and Test wells. In Test wells, 5 μL of the test compound solution and 5 μL of the substrate solution were added. In Control wells, 5 μL of 10% DMSO/water and 5 μL of the substrate solution were added. In Blank wells, 10 μL of 10% DMSO/water was added. To each well was added 10 μL of Active Kinase Stock Solution to make up the volume in each well to 20 μL. All test samples, controls and blanks were run in duplicate. The reaction was initiated by the addition of 5 μL of [^33P]-ATP assay cocktail, bringing the final volume up to 25 μL in every well. The mixture was incubated at room temperature for 30 minutes. The reaction was terminated by transferring 10 μL of the reaction mixture into a Millipore MultiScreen filter plate (cat. number MSPHN6B50). The filter plate was washed in a 1% phosphoric acid solution with constant gentle shaking for 15 minutes and this step was repeated once. After the plate was dried in air, scintillation fluid was added to each well and the radioactivity in each well in CPM was counted by a Microbeta TriLux. The corrected CPM in each test well was determined by subtracting the average value of Blank well values. Percentage of inhibition of the kinase enzymatic activity by the test compound was determined using the following formula: […]
(§11) The IC50 values were determined in a similar way following a serial dilution of the test compound. […]

Test [2] concerns the target T2, human Mer (Homo sapiens, UniProt Q12866).
T2 construct: GST (N); made in house; host or cells: Sf9 insect cells (baculovirus)
T2 sequence (Q12866 578-872): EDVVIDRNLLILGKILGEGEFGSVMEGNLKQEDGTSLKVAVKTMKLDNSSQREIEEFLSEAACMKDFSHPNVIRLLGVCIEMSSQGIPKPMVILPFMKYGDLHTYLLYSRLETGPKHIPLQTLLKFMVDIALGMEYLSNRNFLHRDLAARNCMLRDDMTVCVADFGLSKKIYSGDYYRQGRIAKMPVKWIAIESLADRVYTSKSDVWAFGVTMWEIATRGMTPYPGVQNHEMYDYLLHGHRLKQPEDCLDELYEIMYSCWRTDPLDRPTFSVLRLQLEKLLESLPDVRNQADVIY
Kind of test: Kinase enzymatic activity assay (33P-radiolabeled phosphate transfer), Mer. The following applies: recombinant human Mer (578-872), poly(4:1 glu:tyr) substrate, 30 minutes.
Source text: as §1, §2, §3, §4, §5, §6, §7, §8, §9, §10, §11

For test [3], the target named is T3, human Tyro3 (Homo sapiens, UniProt Q06418).
T3 construct: GST (N); made in house; host or cells: Sf9 insect cells (baculovirus)
T3 sequence (Q06418 455-890 limits assumed): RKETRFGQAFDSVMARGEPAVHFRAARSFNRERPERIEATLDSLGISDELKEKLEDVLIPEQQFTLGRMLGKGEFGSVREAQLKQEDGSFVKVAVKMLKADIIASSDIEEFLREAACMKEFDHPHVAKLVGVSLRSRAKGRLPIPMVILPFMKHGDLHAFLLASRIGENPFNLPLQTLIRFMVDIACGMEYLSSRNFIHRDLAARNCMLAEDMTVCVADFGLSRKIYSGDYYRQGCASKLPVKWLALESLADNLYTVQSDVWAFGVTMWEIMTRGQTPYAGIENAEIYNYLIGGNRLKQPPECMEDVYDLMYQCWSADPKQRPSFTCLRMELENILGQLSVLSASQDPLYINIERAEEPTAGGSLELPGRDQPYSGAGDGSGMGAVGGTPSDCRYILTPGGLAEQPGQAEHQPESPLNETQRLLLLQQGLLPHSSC
Kind of test: Kinase enzymatic activity assay (33P-radiolabeled phosphate transfer), Tyro3. The following applies: recombinant human Tyro3 (455-end), poly(4:1 glu:tyr) substrate, 30 minutes.
Source text: as §1, §2, §3, §4, §5, §6, §7, §8, §9, §10, §11

The IC50 is the midpoint of a concentration-inhibition curve. For the compound `Fc1ccc(Oc2ncnc3cc(OCCN4CCCCC4)cc(OC4CCOCC4)c23)c(Cl)c1` [Example 1, 4-(2-chloro-4-fluorophenoxy)-7-(2-(piperidin-1-yl)ethoxy)-5-((tetrahydro-2H-pyran-4-yl)oxy)quinazoline], the results for the IC50 in test [1], in test [2] and in test [3] were 1 to 10 µM, less than 0.5 µM and less than 0.5 µM, respectively.

With `CN1CCC(CCOc2cc(OC3CCOCC3)c3c(Oc4ccc(F)cc4Cl)ncnc3c2)CC1` [Example 2, 4-(2-chloro-4-fluorophenoxy)-7-(2-(1-methylpiperidin-4-yl)ethoxy)-5-((tetrahydro-2H-pyran-4-yl)oxy)quinazoline], the results for the concentration for half-maximal inhibition (IC50) in test [1], in test [2] and in test [3] were 1 to 10 µM, less than 0.5 µM and less than 0.5 µM, respectively.

Take `Fc1ccc(Oc2ncnc3cc(OCCN4CCOCC4)cc(OC4CCOCC4)c23)c(Cl)c1` [Example 2.1, 4-(2-((4-(2-chloro-4-fluorophenoxy)-5-((tetrahydro-2H-pyran-4-yl)oxy)-quinazolin-7-yl)oxy)ethyl)morpholine]: the IC50 in test [1] was in the range of 1 to 10 µM; in test [2], 0.5 to 1 µM; in test [3], 1 to 10 µM.

As for `CN(C)CCOCCOc1cc(OC2CCOCC2)c2c(Oc3ccc(F)cc3Cl)ncnc2c1` [Example 2.2, 2-(2-((4-(2-chloro-4-fluorophenoxy)-5-((tetrahydro-2H-pyran-4-yl)oxy)quinazolin-7-yl)oxy)ethoxy)-N,N-dimethylethanamine], the 50% inhibitory concentration (IC50) was 1 to 10 µM in test [1], less than 0.5 µM in test [2] and less than 0.5 µM in test [3].

For the compound `COCCN(C)CCOc1cc(OC2CCOCC2)c2c(Oc3ccc(F)cc3Cl)ncnc2c1` [Example 2.3, 2-((4-(2-chloro-4-fluorophenoxy)-5-((tetrahydro-2H-pyran-4-yl)oxy)quinazolin-7-yl)oxy)-N-(2-methoxyethyl)-N-methylethanamine], the figures for the IC50 in test [1], in test [2] and in test [3] were greater than 10 µM, 1 to 10 µM and 0.5 to 1 µM, respectively.

Regarding `COCCOCCOc1cc(OC2CCOCC2)c2c(Oc3ccc(F)cc3Cl)ncnc2c1` [Example 2.4, 4-(2-chloro-4-fluorophenoxy)-7-(2-(2-methoxyethoxy)ethoxy)-5-((tetrahydro-2H-pyran-4-yl)oxy)quinazoline], the IC50 is greater than 10 µM in test [1], 1 to 10 µM in test [2] and 1 to 10 µM in test [3].

In the case of `Fc1ccc(Oc2ncnc3cc(OCCCN4CCOCC4)cc(OC4CCOCC4)c23)c(Cl)c1` [Example 2.5, 4-(3-((4-(2-chloro-4-fluorophenoxy)-5-((tetrahydro-2H-pyran-4-yl)oxy)quinazolin-7-yl)oxy)propyl)morpholine], the IC50 in test [1] was 0.5 to 1 µM; in test [2], less than 0.5 µM; in test [3], less than 0.5 µM.

On to `CC1(C)OC[C@H](COc2cc(OC3CCOCC3)c3c(Oc4ccc(F)cc4Cl)ncnc3c2)O1` [Example 2.9, (S)-4-(2-chloro-4-fluorophenoxy)-7-((2,2-dimethyl-1,3-dioxolan-4-yl)methoxy)-5-((tetrahydro-2H-pyran-4-yl)oxy)quinazoline], for which the IC50 in test [1], in test [2] and in test [3] was 1 to 10 µM throughout.

On to `COCCN1CCN(c2cc(OC3CCOCC3)c3c(Oc4ccc(F)cc4Cl)ncnc3c2)CC1` [Example 2.10, 4-(2-chloro-4-fluorophenoxy)-7-(4-(2-methoxyethyl)piperazin-1-yl)-5-((tetrahydro-2H-pyran-4-yl)oxy)quinazoline], for which the IC50 in test [1] is 1 to 10 µM; in test [2] it was 0.5 to 1 µM; in test [3] it was less than 0.5 µM.

On to `COc1cc(OCCN2CCN(C)CC2)cc2ncnc(Oc3ccc(F)cc3Cl)c12` [Example 2.12, 4-(2-chloro-4-fluorophenoxy)-5-methoxy-7-(2-(4-methylpiperazin-1-yl)ethoxy)quinazoline], for which the figures for the IC50 in test [1], in test [2] and in test [3] were 1 to 10 µM, 1 to 10 µM and less than 0.5 µM, respectively.

As for `COc1cc(OCC2CCN(C)CC2)cc2ncnc(Nc3nc(C(F)(F)F)cs3)c12` [Example 2.13, N-(5-methoxy-7-((1-methylpiperidin-4-yl)methoxy)quinazolin-4-yl)-4-(trifluoromethyl)thiazol-2-amine], the figures for the IC50 in test [1], in test [2] and in test [3] were less than 0.5 µM, greater than 10 µM and greater than 10 µM, respectively.

Consider `CN1CCN(CCOc2cc(OC3CCOCC3)c3c(Nc4nccs4)ncnc3c2)CC1` [Example 2.14, N-(7-(2-(4-methylpiperazin-1-yl)ethoxy)-5-((tetrahydro-2H-pyran-4-yl)oxy)quinazolin-4-yl)thiazol-2-amine], for which the IC50 in test [1] is less than 0.5 µM; in test [2], less than 0.5 µM; in test [3], 1 to 10 µM.

With `CN(C)CCN(C)CCOc1cc(OC2CCOCC2)c2c(Oc3ccc(F)cc3Cl)ncnc2c1` [Example 2.15, N^1-(2-((4-(2-chloro-4-fluorophenoxy)-5-((tetrahydro-2H-pyran-4-yl)oxy)quinazolin-7-yl)oxy)ethyl)-N^1,N^2,N^2-trimethylethane-1,2-diamine], the IC50 in test [1] lay within 1 to 10 µM; in test [2], 0.5 to 1 µM; in test [3] it was 0.5 to 1 µM.

As to `CN(C)CCC1CCN(c2cc(OC3CCOCC3)c3c(Nc4nc(C(F)(F)F)cs4)ncnc3c2)CC1` [Example 2.44, N-(7-(4-(2-(dimethylamino)ethyl)piperidin-1-yl)-5-((tetrahydro-2H-pyran-4-yl)oxy)quinazolin-4-yl)-4-(trifluoromethyl)thiazol-2-amine], the IC50 in test [1] is less than 0.5 µM; in test [3], 1 to 10 µM.

The record behind these values is patent publication US9771333B2, “Quinazoline derivatives as TAM family kinase inhibitors” (SIGNALCHEM LIFESCIENCES CORP., priority 2013, dated 2017).
